Common to all, as to assay type: cell-based
Assay [1] relates to mantle cell lymphoma cell (Mino or JeKo-1). Nature of the assay: Antiproliferative effect, MTS cell viability assay. How it is done: Antiproliferative effect of the exemplary compounds was assessed in B-cell malignancy models.
To assess the effect of the exemplary compounds on cell viability in B-cell malignancy models by degradation of CDK4/6 proteins, Mino cells were treated with varying concentrations of exemplary compounds (0, 0.0001, 0.001, 0.01, 0.1, 1 μM) or positive control (palbociclib and abemaciclib). Under these conditions, cell viability was determined by an MTS assay. Cytotoxicity was assayed by the determination of reduced tetrazolium (formazan) created by metabolically active cells as detected at 490 nanometers (nm) absorbance using a microplate reader (BMG Labtech, Cary, NC, USA).
The exemplary compounds attenuated the viability of Mino cells in a concentration-dependent manner at 72 h post treatment. Results are shown in Table 1 and FIGS. 2-15 for each exemplary compound.
A general note: Tetrazolium dyes change colour on reduction, which living cells bring about.

Assay [2] deals with T1, CDK4 (Homo sapiens, UniProt P11802).
T1 construct: endogenous in cells
T1 sequence (P11802 whole entry): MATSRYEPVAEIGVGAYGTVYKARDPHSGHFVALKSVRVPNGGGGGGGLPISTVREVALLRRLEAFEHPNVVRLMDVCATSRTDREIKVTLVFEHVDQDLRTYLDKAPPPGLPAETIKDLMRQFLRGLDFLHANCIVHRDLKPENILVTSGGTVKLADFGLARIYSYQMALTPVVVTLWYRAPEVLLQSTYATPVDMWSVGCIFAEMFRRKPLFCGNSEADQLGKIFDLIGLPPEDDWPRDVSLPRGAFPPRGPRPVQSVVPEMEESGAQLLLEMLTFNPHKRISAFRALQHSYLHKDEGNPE
Put plainly: CDK4 degradation (DC50, Dmax).

The target in assay [3] is T2, CDK6 (Homo sapiens, UniProt Q00534).
T2 construct: endogenous in cells
T2 sequence (Q00534 whole entry): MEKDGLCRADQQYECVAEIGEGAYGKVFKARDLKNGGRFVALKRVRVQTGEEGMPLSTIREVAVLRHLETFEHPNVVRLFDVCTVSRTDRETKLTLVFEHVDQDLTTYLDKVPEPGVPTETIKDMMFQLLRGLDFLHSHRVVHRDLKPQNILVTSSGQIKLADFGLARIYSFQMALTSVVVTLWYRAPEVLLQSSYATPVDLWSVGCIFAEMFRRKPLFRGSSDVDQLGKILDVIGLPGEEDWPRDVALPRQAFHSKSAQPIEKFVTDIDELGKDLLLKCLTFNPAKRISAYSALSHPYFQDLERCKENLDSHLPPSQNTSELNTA
Nature of the assay: CDK6 degradation (DC50, Dmax).

The mark [4] stands for this setting: 72 h, mantle cell lymphoma cell (Mino or JeKo-1), MTS assay, read-out: IC50 (anti-proliferation).

SMILES strings stand for the structures. Where two headings read alike, the source gives them in different places.

As a reminder, the DC50 is the midpoint of the concentration-degradation curve. Read a low DC50 as degradation at low concentration. What is called Dmax is the largest share of the target that was removed. Low values mean a partial loss of target, high ones a fuller loss of target. In the case of `Cc1nc2c(F)cc(-c3nc(Nc4ccc(CN5CCN(CCCNc6cccc7c6C(=O)N(C6CCC(=O)NC6=O)C7=O)CC5)cn4)ncc3F)cc2n1C(C)C` (stereo not drawn) [Compound 100, 2-(2,6-dioxopiperidin-3-yl)-4-((3-(4-((6-((5-fluoro-4-(4-fluoro-1 isopropyl-2-methyl-1H-benzo[d]imidazol-6-yl)pyrimidin-2-yl)amino)pyridin-3-yl)methyl)piperazin-1-yl)propyl)amino) isoindoline-1,3-dione], in assay [1] (setting [4]), the IC50 is below 0.05 µM. In addition, the “inhibition of cell proliferation of Mino cells” value in assay [1] (Mino cells; 0-1 μM; 72 h; result in words) is on record as “dose-dependent inhibition of cell proliferation”. Moreover, the DC50 in assay [2] and in assay [3] was 0.05 to 0.2 µM throughout. The Dmax in assay [2] and in assay [3] was above 80% throughout.

For `CC(=O)c1c(C)c2cnc(Nc3ccc(N4CCN(C(=O)N5CCN(CCN6CCC(c7ccc8c(c7)C(=O)N(C7CCC(=O)NC7=O)C8=O)CC6)CC5)CC4)cn3)nc2n(C2CCCC2)c1=O` (stereo not drawn) [Compound 27, 5-(1-(2-(4-(4-(6-((6-acetyl-8-cyclopentyl-5-methyl-7-oxo-7,8-dihydropyrido[2,3-d]pyrimidin-2-yl)amino)pyridin-3-yl)piperazine-1-carbonyl)piperazin-1-yl)ethyl)piperidin-4-yl)-2-(2,6-dioxopiperidin-3-yl)isoindoline-1,3-dione], the IC50 in assay [1] (setting [4]) was in the range of 0.05 to 0.2 µM. Moreover, the DC50 in assay [2] and in assay [3] was above 0.2 µM throughout. Further, the Dmax in assay [2] and in assay [3] was above 60% each time.

As to `Cc1nc2c(F)cc(-c3nc(Nc4ccc(CN5CCN(CCNc6ccc7c(c6)C(=O)N(C6CCC(=O)NC6=O)C7)CC5)cn4)ncc3F)cc2n1C(C)C` (stereo not drawn) [Compound 91, 3-(6-((2-(4-((6-((5-fluoro-4-(4-fluoro-1-isopropyl-2-methyl-1H-benzo[d]imidazol-6-yl)pyrimidin-2-yl)amino)pyridin-3-yl)methyl)piperazin-1-yl)ethyl)amino)-1-oxoisoindolin-2-yl)piperidine-2,6-dione], the IC50 in assay [1] (setting [4]) is below 0.05 µM. In assay [2], this compound gave a DC50 below 0.05 µM and a Dmax above 80%. In assay [3], the half-maximal degradation concentration (DC50) is below 0.05 µM and the Dmax is above 80%.

`CC(=O)c1c(C)c2cnc(Nc3ccc(N4CCN(C(=O)N5CCC(C6CCN(c7ccc8c(c7)C(=O)N(C7CCC(=O)NC7=O)C8=O)CC6)CC5)CC4)cn3)nc2n(C2CCCC2)c1=O` (stereo not drawn) [Compound 9, 5-(1′-(4-(6-((6-acetyl-8-cyclopentyl-5-methyl-7-oxo-7,8-dihydropyrido[2,3-d]pyrimidin-2-yl)amino)pyridin-3-yl)piperazine-1-carbonyl)-[4,4′-bipiperidin]-1-yl)-2-(2,6-dioxopiperidin-3-yl)isoindoline-1,3-dione]: the IC50 in assay [1] (setting [4]) is above 0.2 µM. Besides, the DC50 in assay [2] and in assay [3] was above 0.2 µM each time. The Dmax in assay [2] and in assay [3] was above 50% throughout.

Take `Cc1nc2c(F)cc(-c3nc(Nc4ccc(CN5CCN(C6CN(c7cccc8c7C(=O)N(C7CCC(=O)NC7=O)C8=O)C6)CC5)cn4)ncc3F)cc2n1C(C)C` (stereo not drawn) [Compound 98, 2-(2,6-dioxopiperidin-3-yl)-4-(3-(4-((6-((5-fluoro-4-(4-fluoro-1 isopropyl-2-methyl-1H-benzo[d]imidazol-6-yl)pyrimidin-2-yl)amino)pyridin-3-yl)methyl)piperazin-1-yl)azetidin-1-yl)isoindoline-1,3-dione]: the IC50 in assay [1] (setting [4]) lay within 0.05 to 0.2 µM. Also, the DC50 in assay [2] and in assay [3] was 0.05 to 0.2 µM in each case. For the same compound, the Dmax in assay [2] and in assay [3] was above 80% throughout.

On to `CC(=O)c1c(C)c2cnc(Nc3ccc(N4CCN(CCC5CCN(C(=O)Nc6ccc7c(c6)C(=O)N(C6CCC(=O)NC6=O)C7=O)CC5)CC4)cn3)nc2n(C2CCCC2)c1=O` (stereo not drawn) [Compound 45, 4-(2-(4-(6-((6-acetyl-8-cyclopentyl-5-methyl-7-oxo-7,8-dihydropyrido[2,3-d]pyrimidin-2-yl)amino)pyridin-3-yl)piperazin-1-yl)ethyl)-N-(2-(2,6-dioxopiperidin-3-yl)-1,3-dioxoisoindolin-5-yl)piperidine-1-carboxamide], for which the IC50 in assay [1] (setting [4]) fell in the range of 0.05 to 0.2 µM. In assay [2], this compound returned a DC50 of 0.05 to 0.2 µM and a maximal degradation (Dmax) above 60%. In assay [3], this compound showed a DC50 of 0.05 to 0.2 µM and a Dmax above 60%.

`Cc1nc2c(F)cc(-c3nc(Nc4ccc(CC5CCN(C6CCN(c7ccc(NC8CCC(=O)NC8=O)cc7)CC6)CC5)cn4)ncc3F)cc2n1C(C)C` (stereo not drawn) [Compound 172, 3-((4-(4-((6-((5-fluoro-4-(4-fluoro-1-isopropyl-2-methyl-1H-benzo[d]imidazol-6-yl)pyrimidin-2-yl)amino)pyridin-3-yl)methyl)-[1,4′-bipiperidin]-1′-yl)phenyl)amino) piperidine-2,6-dione]: the IC50 in assay [1] (setting [4]) is below 0.05 µM. In assay [2], this compound came in with a DC50 of 0.05 to 0.2 µM and a Dmax above 80%. In assay [3], the DC50 was 0.05 to 0.2 µM and the maximal degradation (Dmax) is above 80%.

For the compound `Cc1nc2c(F)cc(-c3nc(Nc4ccc(CC5CCN(CC6CN(c7ccc(C(=O)NC8CCC(=O)NC8=O)cc7)C6)CC5)cn4)ncc3F)cc2n1C(C)C` (stereo not drawn) [Compound 141, N-(2,6-dioxopiperidin-3-yl)-4-(3-((4-((6-{(5-fluoro-4-(4-fluoro-1-isopropyl-2-methyl-1H-benzo[d]imidazol-6-yl)pyrimidin-2-yl)amino)pyridin-3-yl)methyl)piperidin-1-yl)methyl)azetidin-1-yl)benzamide], the IC50 in assay [1] (setting [4]) is below 0.05 µM. The DC50 in assay [2] and in assay [3] was 0.05 to 0.2 µM each time. For the same compound, the Dmax in assay [2] and in assay [3] was above 80% each time.

Regarding `CC(=O)c1c(C)c2cnc(Nc3ccc(N4CCN(C(=O)N5CCC(N6CCN(c7ccc8c(c7)CN(C7CCC(=O)NC7=O)C8=O)CC6)CC5)CC4)cn3)nc2n(C2CCCC2)c1=O` (stereo not drawn) [Compound 4, 3-(5-(4-(1-(4-(6-((6-acetyl-8-cyclopentyl-5-methyl-7-oxo-7,8-dihydropyrido[2,3-d]pyrimidin-2-yl)amino)pyridin-3-yl)piperazine-1-carbonyl)piperidin-4-yl)piperazin-1-yl)-1-oxoisoindolin-2-yl)piperidine-2,6-dione], in assay [1] (setting [4]), the IC50 lay in the range of 0.05 to 0.2 µM. In assay [2], this compound yielded a DC50 above 0.2 µM and a Dmax above 50%. In assay [3], this compound had a DC50 above 0.2 µM and a Dmax above 50%.

Consider `Cc1nc2c(F)cc(-c3nc(Nc4ccc(CN5CCN(C(=O)C6CCN(c7ccc(NC8CCC(=O)NC8=O)cc7)CC6)CC5)cn4)ncc3F)cc2n1C(C)C` (stereo not drawn) [Compound 156, 3-((4-(4-(4-((6-((5-fluoro-4-(4-fluoro-1-isopropyl-2-methyl-1H-benzo[d]imidazol-6-yl)pyrimidin-2-yl)amino)pyridin-3-yl)methyl)piperazine-1-carbonyl)piperidin-1-yl)phenyl)amino) piperidine-2,6-dione], for which the IC50 in assay [1] (setting [4]) is 0.05 to 0.2 µM. For the same compound, in assay [2], the DC50 is 0.05 to 0.2 µM and the Dmax is above 60%. In assay [3], this compound showed a DC50 of 0.05 to 0.2 µM and a Dmax above 80%.

Regarding `CC(=O)c1c(C)c2cnc(Nc3ccc(N4CCN(C(=O)C5CCN(c6ccc7c(c6)C(=O)N(C6CCC(=O)NC6=O)C7=O)CC5)CC4)cn3)nc2n(C2CCCC2)c1=O` (stereo not drawn) [Compound 114, 5-(4-(4-(6-((6-acetyl-8-cyclopentyl-5-methyl-7-oxo-7,8-dihydropyrido[2,3-d]pyrimidin-2-yl)amino)pyridin-3-yl)piperazine-1-carbonyl)piperidin-1-yl)-2-(2,6-dioxopiperidin-3-yl) isoindoline-1,3-dione], the IC50 in assay [1] (setting [4]) was below 0.05 µM. In assay [2], this compound returned a DC50 of 0.05 to 0.2 µM and a Dmax above 80%. In assay [3], this compound came in with a DC50 of 0.05 to 0.2 µM and a Dmax above 80%.

As for `CC(=O)c1c(C)c2cnc(Nc3ccc(N4CCN(CCCNc5ccc(N6CCC(=O)NC6=O)cc5)CC4)cn3)nc2n(C2CCCC2)c1=O` [Compound 105, 1-(4-((3-(4-(6-((6-acetyl-8-cyclopentyl-5-methyl-7-oxo-7,8-dihydropyrido[2,3-d]pyrimidin-2-yl)amino)pyridin-3-yl)piperazin-1-yl)propyl)amino)phenyl)dihydro-pyrimidine-2,4 (1H,3H)-dione], in assay [1] (setting [4]), the IC50 was below 0.05 µM. For the same compound, the DC50 in assay [2] and in assay [3] was below 0.05 µM throughout. Further, the Dmax in assay [2] and in assay [3] was above 80% throughout.

Consider `CC(=O)c1c(C)c2cnc(Nc3ccc(N4CCN(CC5CCN(C(=O)N6CCN(c7ccc8c(c7)C(=O)N(C7CCC(=O)NC7=O)C8=O)CC6)CC5)CC4)cn3)nc2n(C2CCCC2)c1=O` (stereo not drawn) [Compound 31, 5-(4-(4-((4-(6-((6-acetyl-8-cyclopentyl-5-methyl-7-oxo-7,8-dihydropyrido[2,3-d]pyrimidin-2-yl)amino)pyridin-3-yl)piperazin-1-yl)methyl)piperidine-1-carbonyl)piperazin-1-yl)-2-(2,6-dioxopiperidin-3-yl)isoindoline-1,3-dione], for which the IC50 in assay [1] (mantle cell lymphoma cell (Mino or JeKo-1); MTS assay, 72 h; read-out: IC50 (anti-proliferation)) is below 0.05 µM. Besides, in assay [2], the DC50 was 0.05 to 0.2 µM and the Dmax is above 80%. In assay [3], the DC50 is 0.05 to 0.2 µM and the Dmax was above 80%.

For the origin of these results see patent US20230295118A1 (EnhancedBio Inc., priority 2022, published 2023).
